{"source": "patent US12318455B2", "about": "“Anti-HER2 antibody-drug conjugate and application thereof” (HANGZHOU ADCORIS BIOPHARMA CO., LTD., priority 2016, dated 2025)", "type_in_all_cases": "cell-based", "key": {"[1]": {"tested_on": "MDA453", "test": "Tumor cell inhibition experiment (CCK-8), MDA453", "conditions": "MDA453, HER2 2+, 3 days, read-out: IC50 values (nM) of anti-HER2 antibody-drug conjugates to HER2-expressing tumor cells", "procedure": "(§1) This example examined the inhibitory activity of the antibody-drug conjugates of the present invention on HER2-positive cells. The tumor cell lines in this example were all purchased from ATCC, USA.\n(§2) The experimental steps are as follows:\n(§3) The cells were digested, collected by centrifugation, counted, and the cell liquid was diluted to 0.4-2.0×10^5 cells/ml, and 100 μl of said cell suspension was added to each well of a 96-well plate. The cells were cultured overnight in a 37° C. cell culture incubator, and ADC drugs with corresponding concentration was added the next day. The initial concentration of the drug was 1-15 μg/ml, and was diluted in 3-fold equal-gradient with a total of 9 concentration gradients. Finally, a set of zero-concentration cell were set as controls. After addition of drug, the cells were cultured for 3 days, and the drug-containing medium was sucked. 100 μl of 10% CCK-8 solution was added to each well, and incubated at 37° C. for 1-2 h, and then absorbance intensity of each well was detected at 490 nm with a microplate reader. The data was imported into a mapping software, the curve was fitted, and IC50 values were calculated."}, "[2]": {"tested_on": "BT474", "test": "Tumor cell inhibition experiment (CCK-8), BT474", "conditions": "BT474, HER2 3+, 3 days, read-out: IC50 values (nM) of anti-HER2 antibody-drug conjugates to HER2-expressing tumor cells", "procedure": "as §1, §2, §3"}, "[3]": {"tested_on": "NCI-N87", "test": "Tumor cell inhibition experiment (CCK-8), NCI-N87", "conditions": "NCI-N87, HER2 3+, 3 days, read-out: IC50 values (nM) of anti-HER2 antibody-drug conjugates to HER2-expressing tumor cells", "procedure": "as §1, §2, §3"}, "[4]": {"tested_on": "OE-19", "test": "Tumor cell inhibition experiment (CCK-8), OE-19", "conditions": "OE-19, HER2 3+, 3 days, read-out: IC50 values (nM) of anti-HER2 antibody-drug conjugates to HER2-expressing tumor cells", "procedure": "as §1, §2, §3"}, "[5]": {"tested_on": "HCC1954", "test": "Tumor cell inhibition experiment (CCK-8), HCC1954", "conditions": "HCC1954, HER2 3+, 3 days, read-out: IC50 values (nM) of anti-HER2 antibody-drug conjugates to HER2-expressing tumor cells", "procedure": "as §1, §2, §3"}, "[6]": {"tested_on": "SKBR-3", "test": "Tumor cell inhibition experiment (CCK-8), SKBR-3", "conditions": "SKBR-3, HER2 3+, 3 days, read-out: IC50 values (nM) of anti-HER2 antibody-drug conjugates to HER2-expressing tumor cells", "procedure": "as §1, §2, §3"}}}
{"substance": "T-DM1", "values": [{"measurement": "IC50", "setting": "[1]", "value": 0.259, "unit": "nM"}, {"measurement": "IC50", "setting": "[2]", "value": 0.622, "unit": "nM"}, {"measurement": "IC50", "setting": "[3]", "value": 0.548, "unit": "nM"}, {"measurement": "IC50", "setting": "[4]", "value": 0.099, "unit": "nM"}, {"measurement": "IC50", "setting": "[5]", "value": 0.159, "unit": "nM"}, {"measurement": "IC50", "setting": "[6]", "value": 0.114, "unit": "nM"}]}
